Test results: ChEMBL document CHEMBL1159340, “Antibacterial diterpenes from Calceolaria pinifolia” (J Nat Prod, 2003)
Values after ≈ are worked out from the molar mass of the structure shown.

Columns and labels:
Bacillus subtilis [1] = assay: Inhibition of DNA synthesis in Bacillus subtilis assessed as [3H]thymidine uptake at 8 ug/mL by LKB Betaplate scintillation counter relative to control; assay type: functional; set-up: scale not given: the % may be the effect or the level left
Bacillus subtilis [2] = assay: Inhibition of RNA synthesis in Bacillus subtilis assessed as incorporation of [3H]uridine at 4 ug/mL by LKB Betaplate scintillation counter relative to control; assay type: functional; set-up: scale not given: the % may be the effect or the level left
Bacillus subtilis [3] = assay: Antimicrobial activity against Bacillus subtilis 327 after 18 hrs by microbroth dilution method; assay type: functional
Staphylococcus aureus [4] = assay: Antimicrobial activity against methicillin-susceptible Staphylococcus aureus 375 after 18 hrs by microbroth dilution method; assay type: functional
Staphylococcus aureus [5] = assay: Antimicrobial activity against methicillin-resistant Staphylococcus aureus 310 after 18 hrs by microbroth dilution method; assay type: functional
Escherichia coli = assay: Antimicrobial activity against Escherichia coli imp 389 after 18 hrs by microbroth dilution method; assay type: functional
Bacillus subtilis [6] = assay: Inhibition of protein synthesis in Bacillus subtilis assessed as [3H]amino acid uptake at 4 ug/mL by LKB Betaplate scintillation counter relative to control; assay type: functional; set-up: scale not given: the % may be the effect or the level left
Bacillus subtilis [7] = assay: Inhibition of protein synthesis in Bacillus subtilis assessed as incorporation of [3H]amino acid at 4 ug/mL by LKB Betaplate scintillation counter relative to control; assay type: functional; set-up: scale not given: the % may be the effect or the level left
Bacillus subtilis [8] = assay: Inhibition of DNA synthesis in Bacillus subtilis assessed as [3H]thymidine uptake at 2 ug/mL by LKB Betaplate scintillation counter relative to control; assay type: functional; set-up: scale not given: the % may be the effect or the level left
Bacillus subtilis [9] = assay: Inhibition of DNA synthesis in Bacillus subtilis assessed as incorporation of [3H]thymidine at 2 ug/mL by LKB Betaplate scintillation counter relative to control; assay type: functional; set-up: scale not given: the % may be the effect or the level left
Staphylococcus aureus [10] = assay: Antimicrobial activity against Staphylococcus aureus infected in CD1 mouse administered subcutaneously after 30 mins infection measured after 7 days; assay type: functional; conditions: sc
Bacillus subtilis [11] = assay: Inhibition of RNA synthesis in Bacillus subtilis assessed as [3H]uridine uptake at 2 ug/mL by LKB Betaplate scintillation counter relative to control; assay type: functional; set-up: scale not given: the % may be the effect or the level left
Bacillus subtilis [12] = assay: Inhibition of RNA synthesis in Bacillus subtilis assessed as incorporation of [3H]uridine at 2 ug/mL by LKB Betaplate scintillation counter relative to control; assay type: functional; set-up: scale not given: the % may be the effect or the level left
Bacillus subtilis [13] = assay: Inhibition of protein synthesis in Bacillus subtilis assessed as [3H]amino acid uptake at 2 ug/mL by LKB Betaplate scintillation counter relative to control; assay type: functional; set-up: scale not given: the % may be the effect or the level left
Bacillus subtilis [14] = assay: Inhibition of protein synthesis in Bacillus subtilis assessed as incorporation of [3H]amino acid at 2 ug/mL by LKB Betaplate scintillation counter relative to control; assay type: functional; set-up: scale not given: the % may be the effect or the level left
Bacillus subtilis [15] = assay: Inhibition of DNA synthesis in Bacillus subtilis assessed as [3H]thymidine uptake at 1 ug/mL by LKB Betaplate scintillation counter relative to control; assay type: functional; set-up: scale not given: the % may be the effect or the level left
Bacillus subtilis [16] = assay: Inhibition of DNA synthesis in Bacillus subtilis assessed as incorporation of [3H]thymidine at 1 ug/mL by LKB Betaplate scintillation counter relative to control; assay type: functional; set-up: scale not given: the % may be the effect or the level left
Bacillus subtilis [17] = assay: Inhibition of RNA synthesis in Bacillus subtilis assessed as [3H]uridine uptake at 1 ug/mL by LKB Betaplate scintillation counter relative to control; assay type: functional; set-up: scale not given: the % may be the effect or the level left
Bacillus subtilis [18] = assay: Inhibition of RNA synthesis in Bacillus subtilis assessed as incorporation of [3H]uridine at 1 ug/mL by LKB Betaplate scintillation counter relative to control; assay type: functional; set-up: scale not given: the % may be the effect or the level left
Bacillus subtilis [19] = assay: Inhibition of protein synthesis in Bacillus subtilis assessed as [3H]amino acid uptake at 1 ug/mL by LKB Betaplate scintillation counter relative to control; assay type: functional; set-up: scale not given: the % may be the effect or the level left
Bacillus subtilis [20] = assay: Inhibition of protein synthesis in Bacillus subtilis assessed as incorporation of [3H]amino acid at 1 ug/mL by LKB Betaplate scintillation counter relative to control; assay type: functional; set-up: scale not given: the % may be the effect or the level left
[21] = Toxicity in human RBC assessed as hemolysis at 128 ug/ml after 2 hrs; assay type: cell-based, Erythrocyte; conditions: red blood cells (RBC), read-out: Activity
[22] = Toxicity in human RBC assessed as hemolysis at 64 ug/ml after 2 hrs; assay type: cell-based, Erythrocyte; conditions: red blood cells (RBC), read-out: Activity
[23] = Toxicity in human RBC assessed as hemolysis at 32 ug/ml after 2 hrs; assay type: cell-based, Erythrocyte; conditions: red blood cells (RBC), read-out: Activity
[24] = Toxicity in human RBC assessed as hemolysis at 16 ug/ml after 2 hrs; assay type: cell-based, Erythrocyte; conditions: red blood cells (RBC), read-out: Activity
[25] = Toxicity in human RBC assessed as hemolysis at 8 ug/ml after 2 hrs; assay type: cell-based, Erythrocyte; conditions: red blood cells (RBC), read-out: Activity
[26] = Toxicity in human RBC assessed as hemolysis at 4 ug/ml after 2 hrs; assay type: cell-based, Erythrocyte; conditions: red blood cells (RBC), read-out: Activity
[27] = Toxicity in human RBC assessed as hemolysis at 2 ug/ml after 2 hrs; assay type: cell-based, Erythrocyte; conditions: red blood cells (RBC), read-out: Activity
[28] = Toxicity in human RBC assessed as hemolysis at 1 ug/ml after 2 hrs; assay type: cell-based, Erythrocyte; conditions: red blood cells (RBC), read-out: Activity
[29] = Toxicity in human RBC assessed as hemolysis at 0.5 ug/ml after 2 hrs; assay type: cell-based, Erythrocyte; conditions: red blood cells (RBC), read-out: Activity
Bacillus subtilis [30] = assay: Inhibition of RNA synthesis in Bacillus subtilis assessed as [3H]uridine uptake at 4 ug/mL by LKB Betaplate scintillation counter relative to control; assay type: functional; set-up: scale not given: the % may be the effect or the level left
Bacillus subtilis [31] = assay: Inhibition of DNA synthesis in Bacillus subtilis assessed as incorporation of [3H]thymidine at 4 ug/mL by LKB Betaplate scintillation counter relative to control; assay type: functional; set-up: scale not given: the % may be the effect or the level left
Bacillus subtilis [32] = assay: Inhibition of DNA synthesis in Bacillus subtilis assessed as [3H]thymidine uptake at 4 ug/mL by LKB Betaplate scintillation counter relative to control; assay type: functional; set-up: scale not given: the % may be the effect or the level left
Bacillus subtilis [33] = assay: Inhibition of protein synthesis in Bacillus subtilis assessed as incorporation of [3H]amino acid at 8 ug/mL by LKB Betaplate scintillation counter relative to control; assay type: functional; set-up: scale not given: the % may be the effect or the level left
Bacillus subtilis [34] = assay: Inhibition of protein synthesis in Bacillus subtilis assessed as [3H]amino acid uptake at 8 ug/mL by LKB Betaplate scintillation counter relative to control; assay type: functional; set-up: scale not given: the % may be the effect or the level left
Bacillus subtilis [35] = assay: Inhibition of RNA synthesis in Bacillus subtilis assessed as incorporation of [3H]uridine at 8 ug/mL by LKB Betaplate scintillation counter relative to control; assay type: functional; set-up: scale not given: the % may be the effect or the level left
Bacillus subtilis [36] = assay: Inhibition of RNA synthesis in Bacillus subtilis assessed as [3H]uridine uptake at 8 ug/mL by LKB Betaplate scintillation counter relative to control; assay type: functional; set-up: scale not given: the % may be the effect or the level left
Bacillus subtilis [37] = assay: Inhibition of DNA synthesis in Bacillus subtilis assessed as incorporation of [3H]thymidine at 8 ug/mL by LKB Betaplate scintillation counter relative to control; assay type: functional; set-up: scale not given: the % may be the effect or the level left
Bacillus subtilis [38] = assay: Inhibition of DNA synthesis in Bacillus subtilis assessed as [3H]thymidine uptake at 0.25 ug/mL by LKB Betaplate scintillation counter relative to control; assay type: functional; set-up: scale not given: the % may be the effect or the level left
Bacillus subtilis [39] = assay: Inhibition of DNA synthesis in Bacillus subtilis assessed as incorporation of [3H]thymidine at 0.25 ug/mL by LKB Betaplate scintillation counter relative to control; assay type: functional; set-up: scale not given: the % may be the effect or the level left
Bacillus subtilis [40] = assay: Inhibition of RNA synthesis in Bacillus subtilis assessed as [3H]uridine uptake at 0.25 ug/mL by LKB Betaplate scintillation counter relative to control; assay type: functional; set-up: scale not given: the % may be the effect or the level left
Bacillus subtilis [41] = assay: Inhibition of RNA synthesis in Bacillus subtilis assessed as incorporation of [3H]uridine at 0.25 ug/mL by LKB Betaplate scintillation counter relative to control; assay type: functional; set-up: scale not given: the % may be the effect or the level left
Bacillus subtilis [42] = assay: Inhibition of protein synthesis in Bacillus subtilis assessed as [3H]amino acid uptake at 0.25 ug/mL by LKB Betaplate scintillation counter relative to control; assay type: functional; set-up: scale not given: the % may be the effect or the level left
Bacillus subtilis [43] = assay: Inhibition of protein synthesis in Bacillus subtilis assessed as incorporation of [3H]amino acid at 0.25 ug/mL by LKB Betaplate scintillation counter relative to control; assay type: functional; set-up: scale not given: the % may be the effect or the level left

C=C[C@]1(C)CC=C2C(CC[C@@H]3[C@](C)(CO)CCC[C@@]23C)C1 (stereo not given in full)
Activity (Bacillus subtilis [1]): 1%
Activity (Bacillus subtilis [2]): 0%
MIC (Bacillus subtilis [3]): 4 µg/mL (≈ 13.9 µM)
MIC (Staphylococcus aureus [4]): 2 µg/mL (≈ 6.93 µM)
MIC (Staphylococcus aureus [5]): 2 µg/mL (≈ 6.93 µM)
MIC (Escherichia coli): > 128 µg/mL
Activity (Bacillus subtilis [6]): 1%
Activity (Bacillus subtilis [7]): 2%
Activity (Bacillus subtilis [8]): 2%
Activity (Bacillus subtilis [9]): 2%
ED50 (Staphylococcus aureus [10]): > 64 mg/kg
Activity (Bacillus subtilis [11]): 1%
Activity (Bacillus subtilis [12]): 1%
Activity (Bacillus subtilis [13]): 1%
Activity (Bacillus subtilis [14]): 4%
Activity (Bacillus subtilis [15]): 13%
Activity (Bacillus subtilis [16]): 20%
Activity (Bacillus subtilis [17]): 1%
Activity (Bacillus subtilis [18]): 2%
Activity (Bacillus subtilis [19]): 2%
Activity (Bacillus subtilis [20]): 36%
hemolysis at 2 h, 128 ug/ml [21]: 88.1%
hemolysis at 2 h, 64 ug/ml [22]: 80.2%
hemolysis at 2 h, 32 ug/ml [23]: 71.7%
hemolysis at 2 h, 16 ug/ml [24]: 14.8%
hemolysis at 2 h, 8 ug/ml [25]: 3.32%
hemolysis at 2 h, 4 ug/ml [26]: 0.3%
hemolysis at 2 h, 2 ug/ml [27]: 0.45%
hemolysis at 2 h, 1 ug/ml [28]: 0.08%
hemolysis at 2 h, 0.5 ug/ml [29]: 0.3%
Activity (Bacillus subtilis [30]): 0%
Activity (Bacillus subtilis [31]): 1%
Activity (Bacillus subtilis [32]): 1%
Activity (Bacillus subtilis [33]): 2%
Activity (Bacillus subtilis [34]): 1%
Activity (Bacillus subtilis [35]): 0%
Activity (Bacillus subtilis [36]): 0%
Activity (Bacillus subtilis [37]): 1%

CC1(C)CC[C@]2(C(=O)O)CC[C@]3(C)C(=CC[C@@H]4[C@@]5(C)CC[C@@H](O)C(C)(C)[C@@H]5CC[C@]43C)[C@@H]2C1
MIC (Bacillus subtilis [3]): 64 µg/mL (≈ 140 µM)
MIC (Staphylococcus aureus [4]): > 128 µg/mL
MIC (Escherichia coli): > 128 µg/mL

CO[C@H]1/C=C/O[C@@]2(C)Oc3c(C)c(O)c4c(O)c(c(/C=N/N5CCN(C)CC5)c(O)c4c3C2=O)NC(=O)/C(C)=C\C=C\[C@H](C)[C@H](O)[C@@H](C)[C@@H](O)[C@@H](C)[C@H](OC(C)=O)[C@@H]1C [RIFAMPIN]
Activity (Bacillus subtilis [38]): 94%
Activity (Bacillus subtilis [39]): 108%
Activity (Bacillus subtilis [40]): 143%
Activity (Bacillus subtilis [41]): 29%
Activity (Bacillus subtilis [42]): 90%
Activity (Bacillus subtilis [43]): 25%

C=C[C@]1(C)CCC2=C(CC[C@@H]3[C@](C)(CO)CCC[C@@]23C)C1
MIC (Bacillus subtilis [3]): 32 µg/mL (≈ 111 µM)
MIC (Staphylococcus aureus [4]): 32 µg/mL (≈ 111 µM)
MIC (Staphylococcus aureus [5]): 64 µg/mL (≈ 222 µM)
MIC (Escherichia coli): > 128 µg/mL

C=C[C@]1(C)CC=C2C(CC[C@@H]3[C@](C)(C(=O)O)CCC[C@@]23C)C1 (stereo not given in full)
MIC (Bacillus subtilis [3]): 32 µg/mL (≈ 106 µM)
MIC (Staphylococcus aureus [4]): 16 µg/mL (≈ 52.9 µM)
MIC (Staphylococcus aureus [5]): 32 µg/mL (≈ 106 µM)
MIC (Escherichia coli): > 128 µg/mL

O=C(N[C@H](CO)[C@H](O)c1ccc([N+](=O)[O-])cc1)C(Cl)Cl [CHLORAMPHENICOL]
Activity (Bacillus subtilis [1]): 74%
Activity (Bacillus subtilis [33]): 10%
Activity (Bacillus subtilis [34]): 83%
Activity (Bacillus subtilis [35]): 166%
Activity (Bacillus subtilis [36]): 141%
Activity (Bacillus subtilis [37]): 80%

CC(C)c1ccc2c(c1)CC[C@H]1[C@](C)(CO)CCC[C@]21C [POMIFERIN A]
MIC (Bacillus subtilis [3]): 8 µg/mL (≈ 27.9 µM)
MIC (Staphylococcus aureus [4]): 4 µg/mL (≈ 14 µM)
MIC (Staphylococcus aureus [5]): 4 µg/mL (≈ 14 µM)
MIC (Escherichia coli): > 128 µg/mL
